Laboratory results as given in publication PMC6664396, “A golden opportunity: benzofuranone modifications of aurones and their influence on optical properties, toxicity, and potential as dyes” (Beilstein Journal of Organic Chemistry, 2019).

What was measured:
[1] = test system: Hep G2 human liver cancer cells; assay: Hep G2 cytotoxicity assay (MTT); assay type: cell-based; set-up: Average % Inhibition: tested at 200 µM; settings: for Hep G2 % inhibition: 200 μM concentration of compound, 3 days incubation, MTT readout; for % Inhibition: Hep G2 MTT absorbance relative to vehicle; for Average % Inhibition: average of Triplicates 1-3 (T1, T2, T3), Hep G2 MTT
Procedure: An initial screening of toxicity was conducted at a fairly high concentration (200 μM) on the present series of compounds using a standard HEP G2 inhibition assay (Table 1). Compared to a currently used yellow dye (tartrazine), the aurones are similar to more toxic. Within the aurone series, though, an interesting pair of trends can be observed. First, all hydroxylated aurones are comparatively more toxic, displaying >50% inhibition at 200 μM. Methyl groups are similarly mostly more toxic. For the halogens, however, location is fairly important, with the 6 or 7 position being much less toxic (similar to tartrazine) and dramatically better than the unsubstituted base compound 1, with the unexpected exception of 7-bromo compound 10. Whether this trend is general or not for aurone compounds is an interesting question for future study.
Hep G2 cytotoxicity assay
Hep G2 human liver cancer cells were cultured in phenol red Dulbecco’s
Modified Eagle Medium (DMEM) with 10% fetal bovine serum (FBS) and 1% Pen-strep (PSG) under 37°C and 5% CO2 atmospheric conditions. The cells were washed with phosphate buffered saline (PBS) and diluted with phenol red free DMEM to a concentration between 200,000 to 250,000 cells/mL. The cells we re distributed in a 96-well plate with each well containing 100 µL of the cell solution and were allowed to settle for 2 hours in the incubator. The cells were then treated with 200 µM of the aurones in DMSO and the known dyes in 10:90 (v:v) DMSO/ultrapure water in triplicates and were left in the incubator for 3 days. The vehicles were used as the negative controls (DMSO for the aurones and 10:90 DMSO:ultrapure water for the known dyes). 20 µL of 5 mg/mL MTT (3-(4,5-dimethylthiazol-2-yl)-2,5-diphenyltetrazolium bromide) was added to each well containing treated cells after the 3-day incubation period and was allowed to settle in the incubator for 3.5 more hours. Finally, the media was removed from the wells and replaced by 100 µL of DMSO to lyse the cells and dissolve the formazan crystals that were formed. The absorbance was then recorded on the SpectraMax M5 Multi -Mode Microplate Reader. The procedure was repeated two more times using different batches of cultured Hep G2 cells on different days. […]

[2] = UV–vis spectra in acetonitrile (λmax, extinction coefficient); assay type: physicochemical; set-up: λmax: unit: nm; settings: for dissolution for ε determination: in CH3CN, printed in the ε column
Procedure: With the desired compounds in hand, their UV–visible spectra were recorded at concentrations between 29 and 44 μM in acetonitrile (Figure 3 and Table 1). While not all substituents were prepared at every position, some interesting trends were observed. Substitution at the 4-position whether halogen or hydroxy afforded essentially identical lambda maxima (390 nm), slighly red-shifted compared to the unsubstituted compound 1. On the other hand, hydroxy groups at the 6-position result in a significant blue shift of this lambda max by roughly 40 nm to around 338 nm, presumably due to their donating effect and conjugation with the carbonyl oxygen. […] On the other hand, substitution at the 7-position had virtually no effect, which is to be expected due to the lack of direct conjugation with the carbonyl as well as the only modest electronic effects of alkyl, chlorine, and bromine. In general, the substituent effects are all fairly modest and result in fairly moderate changes in the extinction coefficient (although hydroxy substitution does definitely increase this value by roughly 50%).

[3] = UV–vis spectra determined in CH3CN
[4] = supplement sheet Tabular ε Data, slope of linear equation, unit not given, in L mol⁻¹ cm⁻¹
[5] = supplement sheet Tabular ε Data, unit not given

Molecule	Hep G2 % inhibition [1] [%]	% Inhibition ([1]; Triplicate 1) [%]	% Inhibition ([1]; Triplicate 2) [%]	% Inhibition ([1]; Triplicate 3) [%]	ε ([2]; UV–vis in CH3CN, at λmax) [L/mol/cm]	λmax [2, 3] [nm]	ε [2, 4]	λmax [2, 5]	Average % Inhibition [1] [%]	dissolution for ε determination [2]	dissolution for ε determination ([2]; listed as 6OH7Me)
Cc1ccc(/C=C2\Oc3ccc(F)cc3C2=O)cc1 [Compound 2]	87.01 ± 0.56	90.35	81.77	88.89	17188	394	17188	394	–	–	–
Cc1ccc(/C=C2\Oc3cc(O)ccc3C2=O)cc1 [Compound 14]	66.79 ± 3.04	60.23	53.07	87.07	33050	338	33050	338	–	–	–
Cc1ccc(C=C2Oc3ccc(Br)cc3C2=O)cc1 [Compound 8]	59.35 ± 1.25	65.35	37.11	75.61	15112	394	15112	394	–	–	–
Cc1ccc(/C=C2\Oc3cccc(O)c3C2=O)cc1 [Compound 15]	54.04 ± 4.65	62.56	40.66	58.91	22664	390	22664	390	–	–	–
Cc1ccc(/C=C2\Oc3c(Br)cccc3C2=O)cc1 [Compound 10]	–	8.16	-1.79	11.18	22250	390	22250	390	5.85	–	–
Cc1ccc(/C=C2\Oc3c(Cl)cccc3C2=O)cc1 [Compound 7]	3.64 ± 3.64	7.01	-3.78	7.69	17247	386	17247	386	–	–	–
Cc1ccc(/C=C2\Oc3ccc(Cl)cc3C2=O)cc1 [Compound 5]	72.68 ± 2.77	72.62	63.25	82.18	16551	394	16551	394	–	–	–
Cc1ccc(/C=C2\Oc3ccc(C)cc3C2=O)cc1 [Compound 11]	80.88 ± 1.38	79.75	75.21	87.68	15470	390	15470	390	–	–	–
Cc1ccc(/C=C2\Oc3cc(Br)ccc3C2=O)cc1 [Compound 9]	75.22 ± 3.84	77.38	72.50	75.78	22435	378	22435	378	–	–	–
Cc1ccc(/C=C2\Oc3cccc(Cl)c3C2=O)cc1 [Compound 4]	–	24.72	7.19	13.49	17129	390	17129	390	15.13	–	–
Cc1ccc(/C=C2\Oc3c(ccc(O)c3C)C2=O)cc1 [Compound 17]	78.58 ± 7.11	77.81	74.71	83.21	–	336	–	336	–	will not dissolve completely	will not dissolve
Cc1ccc(/C=C2\Oc3cc(F)ccc3C2=O)cc1 [Compound 3]	3.52 ± 3.39	5.64	13.37	-8.44	24252	370	24252	370	–	–	–
Cc1ccc(/C=C2\Oc3cc(Cl)ccc3C2=O)cc1 [Compound 6]	25.07 ± 18.77	19.67	34.31	21.23	23187	378	23187	378	–	–	–
Cc1ccc(C=C2Oc3ccccc3C2=O)cc1 [Compound 1]	86.27 ± 1.09	88.03	81.21	89.58	20208	382	20208	382	–	–	–
Cc1ccc(/C=C2\Oc3cc(C)c(C)cc3C2=O)cc1 [Compound 12]	24.95 ± 2.23	30.58	22.83	21.44	19522	382	19522	382	–	–	–
Alizarin Y [reference compound]	-54.45	-50.46	-60.58	-52.30	–	–	–	–	–	–	–
Cc1ccc(/C=C2\Oc3c(C)cccc3C2=O)cc1 [Compound 13]	87.54 ± 1.61	89.87	82.08	90.66	18380	386	18380	386	–	–	–
O=C([O-])C1=NN(c2ccc(S(=O)(=O)[O-])cc2)C(=O)C1N=Nc1ccc(S(=O)(=O)[O-])cc1.[Na+].[Na+].[Na+] (stereo not drawn) [tartrazine, reference compound]	6.81	14.72	3.80	1.93	–	–	–	–	–	–	–
Cc1ccc(C=C2Oc3cc(O)cc(C)c3C2=O)cc1 [Compound 16]	67.76 ± 6.06	77.36	54.17	71.74	30445	338	30445	338	–	–	–
